Values joined by “and” are separate entries in the source; they are usually repeats but may differ in a detail not shown here. Equal entries are not always repeated. “Also recorded” adds a separate entry of the source.
Tests used:
Assay type in all cases: in vivo, Sprague-Dawley rats; call rule not given here
[1] = Body weights, weight gain and food consumption over 14 days after single i.v. dose; settings: for Mean food consumption/day / Mean weigth increase by day 14 / day 13 B.W. / day 14 B.W. / B.W. day 1 / B.W. day 2 / B.W. day 3 / B.W. day 4 / B.W. day 5 / B.W. day 6 / B.W. day 7 / B.W. day 8 / B.W. day 9 / B.W. day 10 / B.W. day 11 / B.W. day 12: nicotine 0.75 mg/kg single i.v.; for day 13 B.W. / day 14 B.W. / B.W. day 1 / B.W. day 2 / B.W. day 3 / B.W. day 4 / B.W. day 5 / B.W. day 6 / B.W. day 7 / B.W. day 8 / B.W. day 9 / B.W. day 10 / B.W. day 11 / B.W. day 12 / Average Daily Food Consumption per Rat: tartrate; for B.W. day 1 / B.W. day 2 / B.W. day 3 / B.W. day 4 / B.W. day 5 / B.W. day 6 / B.W. day 7 / B.W. day 8 / B.W. day 9 / B.W. day 10 / B.W. day 11 / B.W. day 12: individual animals; for Average Daily Food Consumption per Rat: nicotine 0.75 mg/kg, per cage (cage 1, 2)
Experimental: Body weight and food consumption was measured daily for 14 days. On day 15, urine was collected on all surviving animals. The animals were euthanized and bled via cardiac puncture, and blood was collected for analysis. Tissues were collected, weighed, evaluated for gross abnormalities, and stored in 10% neutral-buffered formalin.
All animals were observed daily.

Hematology, day 15 = settings: for EOSINOPHIL / HCT / HGB / LYMPHOCYTE / MCH / MCHC / MCV / MONOCYTE / NEUTROPHIL SEG / PLATELET COUNT / RBC / RE[…] / WBC: 0.75 mg/kg, group mean
Source text: (§1) On day 15, urine was collected on all surviving animals for urinalysis. The animals were euthanized and bled via cardiac puncture. Blood was collected for hematology, clinical chemistry, and coagulation analysis. Tissues were collected, weighed, and stored in 10% neutral-buffered formalin for possible future analysis.

Urinalysis, day 15 = settings: Dose is 0.75 mg/kg nicotine
Source text: as §1
There were no notable differences between the active treatment groups and controls and the observations are all consistent with those expected for this species.

[2] = individual animals E1-E10 (M and F)
[3] = individual animals E1-E10 (M and F), tartrate, 0.75 mg/kg

CN1CCCC1c1cccnc1.O=C(O)C(O)C(O)C(=O)O (single isomer, unassigned; (-)) [Nicotine, (−) Nicotine hydrogen tartrate, reference compound]
Mean food consumption/day ([1]; Female): 20.6 g
Mean weigth increase by day 14 ([1]; Female): 40.8 g
Mean food consumption/day ([1]; Male): 26.4 g
Mean weigth increase by day 14 ([1]; Male): 98.5 g
day 13 B.W. ([1]; individual female rats): 232.6 g and 251.8 g and 227.3 g
day 14 B.W. ([1]; individual female rats): 230.4 g and 249 g and 229 g
day 13 B.W. ([1]; individual male rats): 330 g and 312.3 g and 292.4 g and 299.4 g
day 14 B.W. ([1]; individual male rats): 339.2 g and 316.1 g and 297.6 g and 305 g
B.W. day 1 ([1]; day 1, female rats): 191.6 g and 206.1 g and 192.8 g
B.W. day 1 ([1]; day 1, male rats): 227 g and 228 g and 223 g and 219 g
B.W. day 2 ([1]; day 2, female rats): 190.5 g and 213.4 g and 195.7 g
B.W. day 2 ([1]; day 2, male rats): 234.9 g and 239.1 g and 229.5 g and 229.1 g
B.W. day 3 ([1]; day 3, female rats): 198 g and 217.1 g and 199.1 g
B.W. day 3 ([1]; day 3, male rats): 243 g and 245.1 g and 241.1 g and 238.4 g
B.W. day 4 ([1]; day 4, female rats): 207.8 g and 223.8 g and 205.6 g
B.W. day 4 ([1]; day 4, male rats): 260.5 g and 263.4 g and 257.6 g and 252.9 g
B.W. day 5 ([1]; day 5, female rats): 212.3 g and 226.3 g and 206.4 g
B.W. day 5 ([1]; day 5, male rats): 272.1 g and 269.1 g and 260.7 g and 258.7 g
B.W. day 6 ([1]; day 6, female rats): 207 g and 228.9 g and 205.5 g
B.W. day 6 ([1]; day 6, male rats): 259 g and 275.4 g and 270 g and 262.8 g
B.W. day 7 ([1]; day 7, female rats): 213 g and 240.1 g and 218.3 g
B.W. day 7 ([1]; day 7, male rats): 279.9 g and 295.8 g and 288 g and 277.8 g
B.W. day 8 ([1]; day 8, female rats): 218 g and 237.4 g and 217.4 g
B.W. day 8 ([1]; day 8, male rats): 284 g and 293.7 g and 285.6 g and 278 g
B.W. day 9 ([1]; day 9, female rats): 219.1 g and 236.4 g and 213.2 g
B.W. day 9 ([1]; day 9, male rats): 274.9 g and 303.5 g and 285.6 g and 274.6 g
B.W. day 10 ([1]; day 10, female rats): 221.8 g and 240.1 g and 220.5 g
B.W. day 10 ([1]; day 10, male rats): 286.1 g and 314.2 g and 301 g and 283.4 g
B.W. day 11 ([1]; day 11, female rats): 222.8 g and 244.5 g and 226 g
B.W. day 11 ([1]; day 11, male rats): 292.2 g and 317.7 g and 300.1 g and 291.5 g
B.W. day 12 ([1]; day 12, female rats): 232.1 g and 248.9 g and 227.7 g
B.W. day 12 ([1]; day 12, male rats): 290.7 g and 329.5 g and 303 g and 287.3 g
Average Daily Food Consumption per Rat ([1]; female, day 1): 23.7 grams and 14.8 grams
Average Daily Food Consumption per Rat ([1]; female, day 2): 18.4 grams and 24.9 grams
Average Daily Food Consumption per Rat ([1]; female, day 3): 22.2 grams and 22.3 grams
Average Daily Food Consumption per Rat ([1]; female, day 4): 19.4 grams and 15.8 grams
Average Daily Food Consumption per Rat ([1]; female, day 5): 18.7 grams and 16.2 grams
Average Daily Food Consumption per Rat ([1]; female, day 6): 20.0 grams and 17.2 grams
Average Daily Food Consumption per Rat ([1]; female, day 7): 19.4 grams and 21.7 grams
Average Daily Food Consumption per Rat ([1]; female, day 8): 20.1 grams and 20.6 grams
Average Daily Food Consumption per Rat ([1]; female, day 9): 24.4 grams and 21.5 grams
Average Daily Food Consumption per Rat ([1]; female, day 10): 22.6 grams and 20.4 grams
Average Daily Food Consumption per Rat ([1]; female, day 11): 20.4 grams and 20.3 grams
Average Daily Food Consumption per Rat ([1]; female, day 12): 22.5 grams and 21.7 grams
Average Daily Food Consumption per Rat ([1]; female, day 13): 23.7 grams and 21.2 grams
Average Daily Food Consumption per Rat ([1]; female, day 14): 24.4 grams and 19.6 grams
Average Daily Food Consumption per Rat ([1]; males, day 1): 20.8 grams and 19.3 grams
Average Daily Food Consumption per Rat ([1]; males, day 2): 26.2 grams and 23.5 grams
Average Daily Food Consumption per Rat ([1]; males, day 3): 26.6 grams and 26.2 grams
Average Daily Food Consumption per Rat ([1]; males, day 4): 26.2 grams and 23.7 grams
Average Daily Food Consumption per Rat ([1]; males, day 5): 25.1 grams and 21.9 grams
Average Daily Food Consumption per Rat ([1]; males, day 6): 23.8 grams and 25.9 grams
Average Daily Food Consumption per Rat ([1]; males, day 7): 26.5 grams and 27.9 grams
Average Daily Food Consumption per Rat ([1]; males, day 8): 24.0 grams and 28.2 grams
Average Daily Food Consumption per Rat ([1]; males, day 9): 27.3 grams and 26.1 grams
Average Daily Food Consumption per Rat ([1]; males, day 10): 29.6 grams and 30.9 grams
Average Daily Food Consumption per Rat ([1]; males, day 11): 30.1 grams and 29.1 grams
Average Daily Food Consumption per Rat ([1]; males, day 12): 26.5 grams and 23.4 grams
Average Daily Food Consumption per Rat ([1]; males, day 13): 31.9 grams and 28.4 grams
Average Daily Food Consumption per Rat ([1]; males, day 14): 32.7 grams and 26.4 grams
EOSINOPHIL (Hematology, day 15; female): 0.0%
HCT (Hematology, day 15; female): 46.7%
HGB (Hematology, day 15; female): 16.0 g/dL
LYMPHOCYTE (Hematology, day 15; female): 86.3%
MCH (Hematology, day 15; female): 19.9 pg
MCHC (Hematology, day 15; female): 34.2%
MCV (Hematology, day 15; female): 58.7 fL
MONOCYTE (Hematology, day 15; female): 1.0%
NEUTROPHIL SEG (Hematology, day 15; female): 12.7%
PLATELET COUNT (Hematology, day 15; female): 1.363e+06 µL⁻¹
RBC (Hematology, day 15; female): 8e+06 µL⁻¹
RE[…] (Hematology, day 15; female): 5.1%
WBC (Hematology, day 15; female): 10200 µL⁻¹
mean corpuscular volume (MCV) and mean corpuscular hemoglobin (MCH) (Hematology, day 15; females, anatabine […], nicotine 0.75 mg/kg single i.v.): small, but statistically significant decreases
EOSINOPHIL (Hematology, day 15; male): 0.0%
HCT (Hematology, day 15; male): 46.6%
HGB (Hematology, day 15; male): 15.8 g/dL
LYMPHOCYTE (Hematology, day 15; male): 85.8%
MCH (Hematology, day 15; male): 20.9 pg
MCHC (Hematology, day 15; male): 34.0%
MCV (Hematology, day 15; male): 61.5 fL
MONOCYTE (Hematology, day 15; male): 2.5%
NEUTROPHIL SEG (Hematology, day 15; male): 11.8%
PLATELET COUNT (Hematology, day 15; male): 1.3558e+06 µL⁻¹
RBC (Hematology, day 15; male): 7.6e+06 µL⁻¹
RE[…] (Hematology, day 15; male): 5.2%
WBC (Hematology, day 15; male): 11400 µL⁻¹
Urinalysis VOLUME (Urinalysis, day 15; animal E6 (F)): 10 UL
Urinalysis CLARITY (Urinalysis, day 15; [2]): HAZY
Urinalysis COLOR (Urinalysis, day 15; [2]): YELLOW
Urinalysis GLUCOSE (Urinalysis, day 15; [2]): NEGATIVE
Urinalysis KETONES (Urinalysis, day 15; [2]): NEGATIVE
Urinalysis UROBILINOGEN (Urinalysis, day 15; [2]): NORMAL
Urinalysis VOLUME (Urinalysis, day 15; [2]): <0.5 mL
Urinalysis PROTEIN (Urinalysis, day 15; [3]): NEGATIVE; also recorded: TRACE
Urinalysis SPEC GRAVITY (Urinalysis, day 15; [3]): 1.054 and 1.058 and 1.046 and 1.047 and 1.052
Urinalysis pH (Urinalysis, day 15; [3]): 6 and 6.5 (2×) and 7 and 7.5

From US20120196899A1, “METHODS AND PRODUCTS FOR TREATING INFLAMMATION” (Rock Creek Pharmaceuticals, Inc., priority 2010, published 2012)
